# According to patent US8470859B2, “Iminopyridine derivative and use thereof” (Takeda Pharmaceutical Company Limited, priority 2006, dated 2013):
# Legend:
# [1] = system: isolated bladder muscle of BOO model rat; assay: Effect of various drugs on α1 receptor stimulation-induced contraction of isolated bladder muscle of bladder outlet obstruction (BOO) model rat; details: phenylephrine 3 μmol/L
# Protocol: Effect of Various Drugs on α1 Receptor Stimulation-Induced Contraction of Isolated Bladder Muscle of Bladder Outlet Obstruction (BOO) Model Rat
# (§1) • (i) Seven-week-old male Wistar rats (CLEA Japan, Inc., Tokyo) were used. BOO rat was prepared according to publications (Hashimoto T, Nagabukuro H and Doi T: Effects of the selective acetylcholinesterase inhibitor TAK-802 on the voiding behavior and bladder mass increase in rats with partial bladder outlet obstruction. J Urol. 174: 1137-41., 2005.). After pentobarbital (50 mg/kg i.p., Dainippon Sumitomo Pharma Co., Ltd., Osaka) anesthesia, a lower middle abdominal incision was made to expose the bladder. The prostate was detached, the urethra was ligated along with a glass rod having an outer diameter of 1.2 mm, and the glass rod was removed to prepare partial obstruction of the urethra. After the surgery, the abdomen was sutured, and penicillin (2000 IU/rat, penicillin G potassium, MEIJI SEIKA KAISHA, LTD., Tokyo) was subcutaneously administered. An animal after 2 to 4 weeks from obstruction surgery was used. • (ii) Contractile Responses of Isolated Bladder Muscle (1) Preparation of Bladder Muscle Specimen
# BOO model rat was sacrificed by decaptation, and the bladder was isolated. Muscle strips (length 7-10 mm, width about 3 mm) in the longitudinal direction were prepared from the bladder except bladder trigone (4-6 specimen from each bladder).
# (§2) The prepared bladder muscle specimens were hung in a Magnus bath aerated with 95% O2-5% CO2 gas and filled with modified Krebs solution. The contraction tension was measured by an isometric strain transducer (TSD125C, Biopac systems, Santa Barbara, Calif., USA) and recorded in the hard disc of PC (ThinkCentre, IBM, USA) via an amplifier (DA100C, Biopac systems) and a multichannel data analysis apparatus (MP100A-CE, Biopac systems). For uptaking the data, a dedicated software (Acqknowledge 3.8.1., Biopac systems) was used and the sampling interval was set to 0.2 second (5 Hz). The specimens were hung with a load of about 1 g and, after an equilibration time of 1 hr or longer, the following experiment was performed.
# The specimens were treated with phenylephrine (3 μmol/L) to induce contraction. After the contractile response was stabilized (>20 min), the specimens were cumulatively treated 3 times with a drug at a 10-fold common ratio and 30 min intervals, and the variation in the tension was observed.
# The variation in the tension due to α1 receptor stimulation was evaluated by the two methods shown below [average method and standard deviation (Stddev) method].
# The average tension for one minute was measured immediately before phenylephrine treatment and after the contraction was stabilized after the treatment (immediately before completion of about 20 min observation time), and the difference was taken as 100%. The average tension for one minute was measured immediately before completion of observation time (30 min) after treatment with a drug at each concentration, and the inhibition rate of the drug at each concentration was calculated. In the vehicle treatment group, the variation rate of phenylephrine-induced contraction was calculated every time the specimens were treated 3 times with lo the solvent, and the inhibition rate of the drug at each concentration was adjusted based on the variation rate of the corresponding vehicle treatment group. The concentration (IC50) necessary for inhibiting the average tension by 50% by preclinical package (SAS Institute Japan, Ver. 5.0) was calculated based on the inhibition rate at each concentration.
# The standard deviation was measured immediately before phenylephrine treatment and for 5 min after the contraction was stabilized after treatment (immediately before completion of the about 20 min observation time) and the difference was taken as 100%. […]
# [2] = system: isolated bladder muscle of BOO model rat; assay: Effect of SNAP-8719 on α1 receptor stimulation-induced contraction of isolated bladder muscle of bladder outlet obstruction (BOO) model rat; details: phenylephrine 3 μmol/L, average value ± standard error, N=5-8
# Protocol: Effect of SNAP-8719 on α1 Receptor Stimulation-Induced Contraction of Isolated Bladder Muscle of Bladder Outlet Obstruction (BOO) Model Rat
# as §1
# BOO model rat was sacrificed by decaptation, and the bladder was isolated. Muscle strips (length 7-10 mm in the longitudinal direction, width about 3 mm) were prepared from the bladder except bladder trigone (4-6 specimen from each bladder).
# as §2
# The specimens were treated with phenylephrine (3 μmol/L) to induce contraction.
# The standard deviation was measured for 5 minutes immediately before phenylephrine treatment and for 5 minutes after the contraction was stabilized after treatment (immediately before completion of the about 20 min observation time) and the difference was taken as 100%. The standard deviation was measured for 5 minutes immediately before completion of observation time (30 min) after the SNAP-8719 treatment, and the inhibition rate was calculated. In the vehicle treatment group, the variation rate of phenylephrine-induced contraction was calculated every time the specimens were repeatedly treated with the vehicle, and the inhibition rate of SNAP-8719 was adjusted based on the variation rate of the corresponding vehicle treatment group. • (iii) Action of SNAP-8719 on α1 Receptor Stimulation-Induced Contraction of Isolated Bladder Muscle of BOO Model Rat
# After the phenylephrine-induced contraction was stabilized, the specimens were treated with the vehicle 0-4 times at 30 min intervals, treated with SNAP-8719 (1 μmol/L), and the variation in the contraction tension in 30 min was observed. […] Therefore, the evaluation by cumulative treatment with a drug was performed for up to 3 concentrations at 30 min intervals.
smiles,measurement,setting,value
C[C@H](CN1CCN(c2cc(F)c(F)cc2F)CC1)N1C(=O)CC2(CCCC2)CC1=O [SNAP-8719],"effect on the rhythmic contractile response induced by phenylephrine (average method and Stddev method), in words",[1],inhibited
same,IC50,"[1]; concentration inhibiting the average tension by 50%, cumulative treatment, 3 concentrations, 30 min intervals, read-out: Inhibitory effect on phenylephrine-induced contraction IC50 (average method)",360 nM
same,Inhibitory effect on phenylephrine-induced contraction IC30 (stddev method),"[1]; concentration inhibiting the sustained, rhythmic contractile responses by 30%, cumulative treatment, 3 concentrations, 30 min intervals",180 nM
same,"inhibition rate of phenylephrine-induced contraction (standard deviation method, vehicle adjusted value)",[2]; SNAP-8719 1 μmol/L after treatment with vehicle 0 times,51.2±12.4%
same,"inhibition rate of phenylephrine-induced contraction (standard deviation method, vehicle adjusted value)",[2]; SNAP-8719 1 μmol/L after treatment with vehicle 1 time at 30 min intervals,47.4±9.1%
same,"inhibition rate of phenylephrine-induced contraction (standard deviation method, vehicle adjusted value)",[2]; SNAP-8719 1 μmol/L after treatment with vehicle 2 times at 30 min intervals,66.6±8.7%
same,"inhibition rate of phenylephrine-induced contraction (standard deviation method, vehicle adjusted value)",[2]; SNAP-8719 1 μmol/L after treatment with vehicle 3 times at 30 min intervals,36.3±9.4%
same,"inhibition rate of phenylephrine-induced contraction (standard deviation method, vehicle adjusted value)",[2]; SNAP-8719 1 μmol/L after treatment with vehicle 4 times at 30 min intervals,8.7±32.3%
